Experimental data as given in US20040038855A1 (priority 1999, published 2004).
Ends that are not written are not given here.

Key:
[1] = test system: MCH binding sites of G4F-7 cells; details: cited from earlier work
[2] = biological target: human MCH1 receptor (Homo sapiens, UniProt Q99705); assay: Binding of [125I]Phe13,Tyr19-MCH on MCH1-transfected Cos-7 cell membranes; design: expressed in transfected cells; host or cells: COS-7; details: 0.1 nM radioligand
Procedure: For binding assays, pellets of transfected cells are suspended in ice-cold buffer (20 mM Tris.HCl, 5 mM EDTA, pH 7.4) and homogenized by sonication for 7 sec. The cell lysates are centrifuged at 200×g for 5 min at 4° C. The supernatants are then centrifuged at 40,000×g for 20 min at 4° C. The resulting pellets are washed once in the homogenization buffer and suspended in binding buffer (see methods for radioligand binding). Protein concentrations are determined by the method of Bradford (1976) using bovine serum albumin as the standard. Binding assays are usually performed immediately, however it is possible to prepare membranes in batch and store frozen in liquid nitrogen for future use.
MCH1 binding experiments with membranes (20-40 μg membrane protein) from transfected cells are performed with 0.1 nM [^125I]Phe^13-Tyr^19-MCH (Custom labeled by NEN) using incubation buffer consisting of 50 mM Tris pH 7.4, 10MM MgCl2, 2 μg/ml aprotonin, 0.5 mM PMSF and 50 μg/ml bacitracin. Binding is performed at 25° C. for 1 hr. Incubations are terminated by rapid vacuum filtration over GF/C glass fiber filters, presoaked in 5% PEI using 50 mM Tris pH 7.4 containing 0.01% triton X-100 as wash buffer.
Specific [^125I]Phe^13-Tyr^19-MCH binding was about 70% of total binding at a radioligand concentration of 0.1 nM (FIG. 10).

[3] = biological target: T1, rat MCH1 receptor (Rattus norvegicus, UniProt P97639); assay: Binding affinity (Ki) at the rat MCH1 receptor; details: Examples 142-153; read-out: Ki (nM) rMCH1
T1 construct: expressed in transfected cells
T1 sequence (P97639 whole entry): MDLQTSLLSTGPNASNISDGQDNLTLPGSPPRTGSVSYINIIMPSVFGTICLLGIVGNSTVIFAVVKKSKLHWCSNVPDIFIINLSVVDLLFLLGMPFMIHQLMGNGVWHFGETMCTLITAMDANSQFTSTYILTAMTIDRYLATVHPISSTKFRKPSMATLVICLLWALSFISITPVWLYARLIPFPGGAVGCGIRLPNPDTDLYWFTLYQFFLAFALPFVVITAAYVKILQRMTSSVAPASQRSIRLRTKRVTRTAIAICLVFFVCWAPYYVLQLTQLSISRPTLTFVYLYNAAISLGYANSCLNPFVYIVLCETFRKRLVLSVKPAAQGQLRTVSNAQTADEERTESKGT

[4] = test system: micturition reflex, conscious male Sprague Dawley rats; assay: Continuous Slow Transvesicular Infusion (CSTI) rat model; format: in vivo; design: key to Effect of MCH1 antagonist in the CSTI model: B = Produced an increase in bladder capacity in rats relative to baseline capacity; details: bladder capacity, intragastric
Procedure: The effects of compounds on the micturition reflex were assessed in the “distension-induced rhythmic contraction” (DIRC), as described in previous publications (e.g. Maggi et al, 1987; Morikawa et al, 1992), and Continuous Slow Transvesicular Infusion (CSTI) models in rats. Male Sprague Dawley rats weighing approximately 300 g were used for the study. Rats were anaesthetized with pentobarbitone sodium (50 mg/kg, i.p). Through a median abdominal incision, bladder was exposed and a polyethylene cannula (PE 50) was introduced into the bladder through a small cut on the dome of the bladder and the cannula was secured with a purse string suture. The other end of the cannula was exteriorized subcutaneously at the dorsal neck area. Similarly, another cannula (PE 50) was introduced into the stomach through a paramedian abdominal incision with the free end exteriorized subcutaneously to the neck region. The surgical wounds were closed with silk 4-0 suture and the animal was allowed to recover with appropriate post surgical care. On the following day, the animal was placed in a rat restrainer. The open end of the bladder cannula was connected to a pressure transducer as well as infusion pump through a three-way stopcock. The bladder voiding cycles were initiated by continuous infusion of normal saline at the rate of 100 ul/min. The repetitive voiding contractions were recorded on a Power Lab on-line data acquisition software. After recording the basal voiding pattern for an hour, the test drug or vehicle was administered directly into stomach through the intragastric catheter and the voiding cycles were monitored for 5 hours. Micturition pressure and frequency were calculated before and after the treatment (at every 30 min interval) for each animal. Bladder capacity was calculated from the micturition frequency, based on the constant infusion of 100 ul/min. The effect of the test drug was expressed as a percentage of basal, pre-drug bladder capacity. WAY 100635 was used as positive control for comparison.

[5] = test system: micturition reflex, anesthetized female Sprague Dawley rats; assay: Distension-induced rhythmic contraction (DIRC) model; format: in vivo, rat; design: key: A = Produced a significant increase in contraction interval relative to pre-drug interval; details: contraction interval, i.v. or i.p.
Procedure: The effects of compounds on the micturition reflex were assessed in the “distension-induced rhythmic contraction” (DIRC), as described in previous publications (e.g. Maggi et al, 1987; Morikawa et al, 1992), and Continuous Slow Transvesicular Infusion (CSTI) models in rats.
Female Sprague Dawley rats weighing approximately 300 g were anesthetized with subcutaneous urethane (1.2 g/kg). The trachea was cannulated with PE240 tubing to provide a clear airway throughout the experiment. A midline abdominal incision was made and the left and right ureters were isolated. The ureters were ligated distally (to prevent escape of fluids from the bladder) and cannulated proximally with PE10 tubing. The incision was closed using 4-0 silk sutures, leaving the PE10 lines routed to the exterior for the elimination of urine. The bladder was canulated via the transurethral route using PE50 tubing inserted 2.5 cm beyond the urethral opening. This cannula was secured to the tail using tape and connected to a pressure transducer. To prevent leakage from the bladder, the cannula was tied tightly to the exterior urethral opening using 4-0 silk.
To initiate the micturition reflex, the bladder was first emptied by applying pressure to the lower abdomen, and then filled with normal saline in […] (maximum 2 ml) until spontaneous bladder contractions occurred (typically 20-40 mmHg at a rate of one contraction every 2 to 3 minutes. Once a regular rhythm was established, vehicle (saline) or Test Compounds were administered i.v. or i.p. to explore their effects on bladder activity. The 5-HT1A antagonist WAY-100635 was given as a positive control. Data were expressed as contraction interval (in seconds) before drug application (basal), or after the application of vehicle or test article.

Sequence of human MCH1 receptor (Q99705 whole entry): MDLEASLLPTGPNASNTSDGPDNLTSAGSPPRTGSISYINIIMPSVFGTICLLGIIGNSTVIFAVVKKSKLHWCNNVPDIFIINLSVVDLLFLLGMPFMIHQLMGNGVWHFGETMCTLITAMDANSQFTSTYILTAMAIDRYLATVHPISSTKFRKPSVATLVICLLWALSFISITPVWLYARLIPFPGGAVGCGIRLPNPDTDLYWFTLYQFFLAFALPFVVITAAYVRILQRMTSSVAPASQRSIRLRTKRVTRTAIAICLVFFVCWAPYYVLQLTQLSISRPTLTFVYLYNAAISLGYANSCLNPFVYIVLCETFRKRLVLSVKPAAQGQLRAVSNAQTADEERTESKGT

## rat ANF: rat ANF, weakly inhibited binding of the radioiodinated MCH analogue (SLRRSSCFGGRIDRIGAQSGLGCNSFRY; ends and bridges not checked; cysteine pairing not given here; UniProt P01161 123-150, looked up)
[1]; inhibition of binding of the radioiodinated ligand
  Ki: 116 nM

## [^125I]Phe^13-Tyr^19-MCH: radioiodinated MCH analogue, custom labeled by NEN, radioligand of the MCH1 binding experiments
[2]
  specific binding as share of total binding: about 70 % of total binding
[2]; MCH1-transfected cells
  specific binding: about 80 fmol/mg membrane protein

## CC(=O)c1cccc(O[C@H](CCN2CCC(c3cccc(NC(=O)C(C)C)c3)CC2)c2ccccc2)c1 [Example 151]
[3]
  Ki: 3.8 nM
[4]
  Effect of MCH1 antagonist in the CSTI model: B
[5]
  Effect of MCH1 antagonist in the DIRC model: A

## α-MSH
[1]
  inhibition of binding of the radioiodinated ligand: not inhibited
